This is an account of results in PMC6026847, “Synthesis and Evaluation of the First Fluorescent Antagonists of the Human P2Y2 Receptor Based on AR-C118925” (Journal of Medicinal Chemistry, 2018).

Read-outs that look alike come from different tables or passages of the source.

By EC50 is commonly meant the concentration needed to bring the measured effect to its halfway point.

For assay [1], the target named is T1, hP2Y2R (Homo sapiens, UniProt P41231).
T1 construct: The 1321N1 cells expressing wild-type P2Y2R (P2Y2R-1321N1) were gifted by Dr. Elizabeth Rosethorne; expressed in transfected cells; host or cells: 1321N1 astrocytoma cells (P2Y2R-1321N1), gifted
T1 sequence (P41231 whole entry): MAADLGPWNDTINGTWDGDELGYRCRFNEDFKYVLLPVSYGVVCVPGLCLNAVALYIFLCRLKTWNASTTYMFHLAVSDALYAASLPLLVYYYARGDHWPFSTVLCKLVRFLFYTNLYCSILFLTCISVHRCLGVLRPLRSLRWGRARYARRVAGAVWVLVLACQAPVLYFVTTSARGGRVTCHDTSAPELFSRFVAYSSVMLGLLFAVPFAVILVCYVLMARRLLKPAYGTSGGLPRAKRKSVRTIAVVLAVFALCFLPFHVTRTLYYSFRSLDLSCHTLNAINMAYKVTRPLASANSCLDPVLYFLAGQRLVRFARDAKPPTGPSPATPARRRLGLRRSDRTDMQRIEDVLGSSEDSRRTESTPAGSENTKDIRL
Nature of the assay: Calcium-mobilization assay in P2Y2-1321N1 cells (antagonism of UTPγS). The class given is cell-based.

Assay [2] addresses T1, hP2Y2R. Nature of the assay: Confocal microscopy of fluorescent ligands on 1321N1 astrocytoma cells expressing hP2Y2R. The class given is cell-based. Particulars: for membrane-specific fluorescence after pretreatment with 1: 100 nM fluorescent ligand plus 10 μM 1, 30 min at 37 °C; for confocal imaging: fluorescence localisation: 100 nM fluorescent ligand, 1321N1 astrocytoma cells expressing hP2Y2R. How it is done:
The P2Y2R-1321N1 cells were grown to approximately 80% confluency on eight-well Labtek chambered cover glasses (Nunc Nalgene) in normal growth medium. The growth medium was removed and replaced with HBSS containing apyrase (1 U/mL) and either 1 (10 μM) or the vehicle, and the cells incubated for 30 min at 37 °C without CO2. The cells were then incubated with 97 or 98 at the required concentration for 10 min at room temperature prior to the collection of the single-equatorial confocal images. The images were obtained on a Zeiss LSM710 confocal microscope using a 40× c-Apochromat 1.2NA water-immersion objective. For 97, the images were collected using a 633 nm excitation wavelength and a 488/561/633 dichroic, and the emissions were collected through a 650LP filter. For 98, a 488 nm excitation wavelength was used with the same dichroic, and the emissions were collected using an LP575 filter. In each case, a pinhole diameter of 1 airy unit was used, and the laser power, gain, and offset were kept the same for all of the samples within each experiment. For both 97 and 98, the images presented are as representative of an individual experiment with matched conditions. Linear adjustments to the image brightness and contrast have been applied equally across all of the comparative images using Zen software in order to prepare the images for presentation.

The target in assay [3] is T2, NLuc-P2Y2R (Homo sapiens, UniProt P41231).
T2 construct: expressed in transfected cells
T2 sequence (P41231 2-377 limits assumed): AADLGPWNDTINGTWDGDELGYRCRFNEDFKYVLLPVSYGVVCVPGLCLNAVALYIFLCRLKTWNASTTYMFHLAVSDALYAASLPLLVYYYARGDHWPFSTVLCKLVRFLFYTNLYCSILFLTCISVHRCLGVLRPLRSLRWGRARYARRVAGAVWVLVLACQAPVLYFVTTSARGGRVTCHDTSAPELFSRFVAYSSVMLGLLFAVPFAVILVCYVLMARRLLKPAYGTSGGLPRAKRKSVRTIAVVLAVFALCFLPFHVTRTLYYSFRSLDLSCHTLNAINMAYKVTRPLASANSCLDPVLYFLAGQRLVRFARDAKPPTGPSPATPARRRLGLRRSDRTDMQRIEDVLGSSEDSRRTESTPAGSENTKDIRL
Nature of the assay: NanoBRET saturation binding in NLuc-P2Y2R 1321N1 astrocytoma cells. Particulars: for Kd / NanoBRET pKd: saturation binding curves, 1321N1 cells expressing NLuc-P2Y2R, mean ± SEM; for specific NanoBRET signal: fixed 10 μM fluorescent conjugate in presence or absence of 10 μM 1, among 78–91 (Figure S1); for NanoBRET pKd: Table 4. The procedure:
To determine whether any of these conjugates had affinities for P2Y2R and consequently if they could be used in NanoBRET binding assays, a 1321N1 astrocytoma cell line expressing recombinant P2Y2R tagged on its N-terminus with NLuc (NLuc-P2Y2R) was generated. […] These NLuc-P2Y2 cells were treated with increasing concentrations of 66–69 and then treated with the NLuc substrate, furimazine, before the resulting BRET signal was monitored. […] However, this did illustrate the power of using NanoBRET to monitor ligand binding to low-affinity receptors.
Nucleophilic displacement of the 2-chloro substituent of 43 by either tert-butyl 3-aminopropanoate or tert-butyl 6-aminohexanoate gave the corresponding tert-butyl esters (70 and 71). […] The carboxylic acids were generated from the tert-butyl esters via TFA-mediated hydrolysis and subsequently coupled with tert-butyl (2-aminoethyl)carbamate or tert-butyl (2-(2-aminoethoxy)ethyl)carbamate to generate the corresponding amides (74–77). The Boc protecting groups were removed using TFA, and the resulting amines were coupled with the appropriate commercially available BODIPY succinimidyl ester (SE), generating a small library of 14 fluorescent conjugates (78–91). These fluorescent conjugates were initially tested using the aforementioned NanoBRET binding assay at fixed concentrations of 10 μM in the presence or absence of 10 μM 1 (see Figure S1 in the Supporting Information).
The saturation and competition binding assays were performed according to the methodology of Stoddart.[18] Briefly, the assays were performed on stably transfected NLucP2Y2-1321N1 cells that had been seeded 24 h prior to the experiment in white Thermo Scientific Matrix 96-well microplates. The medium in each well was removed and replaced with HBSS containing apyrase (1 U/mL) and the required concentration of the fluorescent ligand with or without the competing ligand. Upon the addition of the fluorescent ligand, the cells were incubated for 1 h at 37 °C without CO2. The NLuc substrate, furimazine (Promega), was then added to a final concentration of 10 μM, and the plate was incubated for a further 5 min at 37 °C without CO2. The luminescence and resulting BRET were measured using a PHERAstar FS plate reader (BMG Labtech) at room temperature. For the assays involving 97, sequential measurements of the filtered light emissions were made at 460 nm (80 nm bandpass) and >610 nm (long-pass), and the raw BRET ratios were calculated by dividing the >610 nm emissions by the 460 nm emissions. For the assays involving 98, the measurements were made at 475 nm (30 nm bandpass) and 535 nm (30 nm bandpass), and the raw BRET ratios were calculated by dividing the 535 nm emissions by the 475 nm emissions.
The total and nonspecific saturation binding curves were fitted simultaneously using eq 2: [drawing 7] 2 where Bmax is the maximum specific BRET signal, [b] is the nanomolar concentration of the fluorescent ligand, Kd is the equilibrium dissociation constant in nanomolar, M is the slope of the nonspecific-binding component, and C is the intercept with the Y-axis. The pKd is −logKd.
Background: BRET reads energy transfer from a luciferase to a nearby fluorophore.

The subject of assay [4] is hP2Y2. Also noted: method as in PMID 8564228. Particulars: endogenous agonists; cited from earlier work.
Setting [5] is: 10 μM fluorescent ligand, rightward shift of agonist dose–response curve, hP2Y2R-1321N1 cells, read-out: pKb (converted).

As for `O=C(CCCCCNC(=O)COc1ccc(/C=C/C2=[N+]3C(=Cc4ccc(-c5cccs5)n4[B-]3(F)F)C=C2)cc1)NCCNC(=O)CCNc1nc2c(s1)C=Cc1cc(Cl)ccc1C2c1cn(Cc2nc(C(=O)Nc3nnn[nH]3)cs2)c(=O)[nH]c1=S` (centres unmarked) [Example 97, (E)-2-((5-(7-Chloro-2-((3-((2-(6-(2-(4-(2-(5,5-difluoro-7-(thiophen-2-yl)-5H-4λ^4,5λ^4-dipyrrolo[1,2-c:2′,1′-f][1,3,2]diazaborinin-3-yl)vinyl)phenoxy)acetamido)hexanamido)ethyl)amino)-3-oxopropyl)amino)-4H-benzo[5,6]cyclohepta[1,2-d]thiazol-4-yl)-2-oxo-4-thioxo-3,4-dihydropyrimidin-1(2H)-yl)methyl)-N-(1H-tetrazol-5-yl)thiazole-4-carboxamide], the Kb in assay [1] (setting [5]) was 2040 nM. Further, in assay [2], the “membrane-specific fluorescence after pretreatment with 1” value was “substantially reduced”; the “confocal imaging: fluorescence localisation” value was “localized membrane fluorescence and very little intracellular fluorescence”.
For the compound `Cn1cc(C2c3ccc(Cl)cc3C=Cc3sc(NCCC(=O)NCCOCCOCCNC(=O)CCCCCNC(=O)COc4ccc(/C=C/C5=[N+]6C(=Cc7ccc(-c8cccs8)n7[B-]6(F)F)C=C5)cc4)nc32)c(=S)[nH]c1=O` (centres unmarked) [Example 80, (E)-N-(2-(2-(2-(3-((7-Chloro-4-(1-methyl-2-oxo-4-thioxo-1,2,3,4-tetrahydropyrimidin-5-yl)-4H-benzo[5,6]cyclohepta[1,2-d]thiazol-2-yl)amino)propanamido)ethoxy)ethoxy)ethyl)-6-(2-(4-(2-(5,5-difluoro-7-(thiophen-2-yl)-5H-4λ^4,5λ^4-dipyrrolo[1,2-c:2′,1′-f][1,3,2]diazaborinin-3-yl)vinyl)phenoxy)acetamido)hexanamide], in assay [3] (Table 5, read-out: pKd (converted)), the Kd was 5130 nM. For the same compound, the “specific NanoBRET signal” value in assay [3] was “largest specific NanoBRET signals”.
As to “(E)-N1-(18-(4-(2-(5,5-Difluoro-7-(thiophen-2-yl)-5H-4λ^4,5λ^4-dipyrrolo[1,2-c:2′,1′-f][1,3,2]diazaborinin-3-yl)vinyl)phenoxy)-10,17-dioxo-3,6-dioxa-9,16-diazaoctadecyl)-5-((5-(2,8-dimethyl-5H-dibenzo[a,d][7]annulen-5-yl)-2-oxo-4-thioxo-3,4-dihydropyrimidin-1(2H)-yl)methyl)-N3-(1H-tetrazol-5-yl)isophthalamide [Example 69]”, the “NanoBRET pKd” value in assay [3] is reported as 6.07 ± 0.15 (3).
Turning to `Nc1ncnc2c1ncn2[C@@H]1O[C@H](COP(=O)(O)OP(=O)(O)OP(=O)(O)O)[C@@H](O)[C@H]1O` [ATP, adenosine-5′-triphosphate], the EC50 in assay [4] was 230 nM.
As to `O=c1ccn([C@@H]2O[C@H](COP(=O)(O)OP(=O)(O)OP(=O)(O)O)[C@@H](O)[C@H]2O)c(=O)[nH]1` [UTP, uridine-5′-triphosphate], the EC50 in assay [4] is 140 nM.
In the case of `Cc1cc(C)n2c1C=C1C=CC(CCC(=O)NCCNC(=O)CCNc3nc4c(s3)C=Cc3cc(Cl)ccc3C4c3cn(C)c(=O)[nH]c3=S)=[N+]1[B-]2(F)F` (centres unmarked) [Example 85, 3-((7-Chloro-4-(1-methyl-2-oxo-4-thioxo-1,2,3,4-tetrahydropyrimidin-5-yl)-4H-benzo[5,6]cyclohepta[1,2-d]thiazol-2-yl)amino)-N-(2-(3-(5,5-difluoro-7,9-dimethyl-5H-4λ^4,5λ^4-dipyrrolo[1,2-c:2′,1′-f][1,3,2]diazaborinin-3-yl)propanamido)ethyl)propanamide], the “specific NanoBRET signal” value in assay [3] is “largest specific NanoBRET signals”.
Same read-out and setting: next, `Cc1cc(C)n2c1C=C1C=CC(CCC(=O)NCCCCCC(=O)NCCOCCOCCNC(=O)CCNc3nc4c(s3)C=Cc3cc(Cl)ccc3C4c3cn(C)c(=O)[nH]c3=S)=[N+]1[B-]2(F)F` (centres unmarked) [Example 87, N-(2-(2-(2-(3-((7-Chloro-4-(1-methyl-2-oxo-4-thioxo-1,2,3,4-tetrahydropyrimidin-5-yl)-4H-benzo[5,6]cyclohepta[1,2-d]thiazol-2-yl)amino)propanamido)ethoxy)ethoxy)ethyl)-6-(3-(5,5-difluoro-7,9-dimethyl-5H-4λ^4,5λ^4-dipyrrolo[1,2-c:2′,1′-f][1,3,2]diazaborinin-3-yl)propanamido)hexanamide]: “largest specific NanoBRET signals”.
`Cc1cc(C)n2c1C=C1C=CC(CCC(=O)NCCCCCC(=O)NCCNC(=O)CCNc3nc4c(s3)C=Cc3cc(Cl)ccc3C4c3cn(C)c(=O)[nH]c3=S)=[N+]1[B-]2(F)F` (centres unmarked) [Example 86, N-(2-(3-((7-Chloro-4-(1-methyl-2-oxo-4-thioxo-1,2,3,4-tetrahydropyrimidin-5-yl)-4H-benzo[5,6]cyclohepta[1,2-d]thiazol-2-yl)amino)propanamido)ethyl)-6-(3-(5,5-difluoro-7,9-dimethyl-5H-4λ^4,5λ^4-dipyrrolo[1,2-c:2′,1′-f][1,3,2]diazaborinin-3-yl)propanamido)hexanamide]: the Kb in assay [1] (Table 7, Gaddum equation, shift of agonist dose–response curve by a single antagonist concentration, mean ± SEM, read-out: pKb Ca2+ mobilization (converted)) was 501 nM. The “specific NanoBRET signal” value in assay [3] is listed as “largest specific NanoBRET signals”.
As to `CC1=CC(C)=[N+]2C1=Cc1ccc(CCC(=O)NCCCCCC(=O)NCCNC(=O)CCNc3nc4c(s3)C=Cc3cc(Cl)ccc3C4c3cn(Cc4nc(C(=O)Nc5nnn[nH]5)cs4)c(=O)[nH]c3=S)n1[B-]2(F)F` (centres unmarked) [Example 98, (E)-2-((5-(7-Chloro-2-((3-((2-(6-(3-(5,5-difluoro-7,9-dimethyl-5H-5λ^4,6λ^4-dipyrrolo[1,2-c:2′,1′-f][1,3,2]diazaborinin-3-yl)propanamido)hexanamido)ethyl)amino)-3-oxopropyl)amino)-4H-benzo[5,6]cyclohepta[1,2-d]thiazol-4-yl)-2-oxo-4-thioxo-3,4-dihydropyrimidin-1(2H)-yl)methyl)-N-(1H-tetrazol-5-yl)thiazole-4-carboxamide], the Kb in assay [1] (setting [5]) was 1350 nM. Also, the Kd in assay [3] (Table 6, read-out: NanoBRET pKd (converted)) is 479 nM. For the same compound, in assay [2], the “membrane-specific fluorescence after pretreatment with 1” value was “substantially reduced”; the “confocal imaging: fluorescence localisation” value was “localized membrane fluorescence and very little intracellular fluorescence”.
Regarding “(E)-N1-(2-(6-(2-(4-(2-(5,5-Difluoro-7-(thiophen-2-yl)-5H-4λ^4,5λ^4-dipyrrolo[1,2-c:2′,1′-f][1,3,2]diazaborinin-3-yl)vinyl)phenoxy)acetamido)hexanamido)ethyl)-5-((5-(2,8-dimethyl-5H-dibenzo[a,d][7]annulen-5-yl)-2-oxo-4-thioxo-3,4-dihydropyrimidin-1(2H)-yl)methyl)-N3-(1H-tetrazol-5-yl)isophthalamide [Example 67]”, in assay [3], the “NanoBRET pKd” value was 5.78 ± 0.18 (3).
